Data published in patent publication US20110178053A1, “AZACARBOLINE DERIVATIVES, PREPARATION METHOD THEREOF AND THERAPEUTIC USE OF SAME” (SANOFI-AVENTIS, priority 2008, published 2011).

Assays:
[1] = system: EOL-1; test: Cell viability assay (CellTiter-Blue), EOL-1; assay type: cell-based; conditions: Homo sapiens, EOL1, read-out: EC50 EOL-1 μM (lymphoma); EOL-1 cells; cell proliferation/viability
Source text: (§1) The representative compounds of the invention are also screened as regards their effects on cell proliferation and viability using a variety of human tumour cell lines, which are representative of various pathological indications. These cell lines include: • Models of haematological cancers: • TF-1 (acute myelogenic leukaemia; AML M6 at the time of diagnosis); • KG-1 (AML; erythroleukaemia evolving into AML); • KG-1a (AML; sub-clone derived from immature KG-1); • EOL-1 (AML; eosinophilic leukaemia); • PL-21 (AML; M3); • ML-2 (AML; T-NHL evolving into T-ALL evolving into AML M4); • HL-60 (AML, M3); • Kasumi-1 (AML); • GDM-1 (AML); • K-562 (CML—chronic myelogenic leukaemia; blastic crisis); • JURL-MK1 (CML; blastic crisis); • DND-41 (T-ALL—-cell acute lymphoblastic leukaemia); • Jurkat (T-ALL); NALM-6 (B-ALL—B-cell ALL); • CEM (ALL; lymphosarcoma evolving into ALL); • Jeko-1 (B-NHL—B-cell non-Hodgkin lymphoma; mantle-cell lymphoma derived from a variant with large cells as a leukaemic transformation); • WSU-DLCL2 (B-NHL; large B-cell diffuse lymphoma); • RL (B-NHL; undifferentiated diffuse); • OCI-Ly10 (B-NHL); • DoHH-2 (B-NHL); • RPMI-8226 (MM—multiple myeloma); • JVM-2 (B-CLL—B-cell chronic lymphocytic leukaemia); and • JVM-3 (B-CLL) • MV4-11 (AML) • MOLM13 (AML). • Solid tumour models: • HCT-116 (bowel cancer); • HT-29 (bowel cancer); • HC-15 (bowel cancer); • H460 (lung cancer; non-small-cell lung cancer); • A375 (melanoma); • B16F10 (melanoma); • MDA-A1 (breast cancer); • MDA-MB231 (breast cancer); • MDA-MB231 adr (breast cancer); • PANC-1 (pancreatic cancer); and • PC-3 (prostate cancer).
(§2) In order to measure the viability, the tumour cells are incubated in a 96-well or 384-well format for 48, 72 or 96 hours, preferably 72 hours, with a compound of the invention at dilutions of a factor 3 with, in general, nine doses in total, the highest dose being equal to 10 μM or 30 μM. The cell viability is evaluated by adding CellTiter-Blue® (Promega, Madison, Wis., United States) for 4 hours and end-point readings are taken using a SpectraMax Genmini EM (Molecular Devices, Sunnyvale, Calif., United States). The CellTiter-Blue® cell viability assay measures the ability of the cells in culture to reduce resazurin to resorufin, the fluorescence signal intensity being directly proportional to the number of live cells.

[2] = biological target: T1, Pim-2 (Homo sapiens, UniProt Q9P1W9); test: TR-FRET assay, Pim-2 kinase (phosphorylation of Bad Ser112); assay type: biochemical; conditions: TR-FRET; ATP 40 μM; read-out: IC50 Pim2
T1 construct: His6-labelled recombinant full-length human Pim-1, Pim-2 or Pim-3 protein; His6; made in house
Outline: (§3)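 For each of Pim-1, Pim-2 and Pim-3 (His6-tagged full-length human), compounds were titrated over 10 concentrations in duplicate, typically from 30 μM, with ATP at 40 μM, equal to apparent KM. Bad Ser112 phosphorylation was read as the 665/615 nm TR-FRET ratio and IC50 fitted by 4-parameter logistic model.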

[3] = biological target: T2, Pim-3 (Homo sapiens, UniProt Q86V86); test: TR-FRET assay, Pim-3 kinase (phosphorylation of Bad Ser112); assay type: biochemical; conditions: TR-FRET; ATP 40 μM; read-out: IC50 Pim3
T2 construct: His6-labelled recombinant full-length human Pim-1, Pim-2 or Pim-3 protein; His6; made in house
Outline: as §3

[4] = biological target: T3, Pim-1 (Homo sapiens, UniProt P11309); test: TR-FRET assay, Pim-1 kinase (phosphorylation of Bad Ser112); assay type: biochemical; conditions: TR-FRET; ATP 40 μM; read-out: IC50 Pim1
T3 construct: His6-labelled recombinant full-length human Pim-1, Pim-2 or Pim-3 protein; His6; made in house
Outline: as §3

[5] = system: MV4-11; test: Cell viability assay (CellTiter-Blue), MV4-11; assay type: cell-based; conditions: Homo sapiens; MV4-11 cells; cell proliferation/viability; read-out: IC50 MV4-11 μM (myeloma)
Source text: as §1, §2

[6] = system: MOLM-13; test: Cell viability assay (CellTiter-Blue), MOLM-13; assay type: cell-based; conditions: Homo sapiens; MOLM-13 cells; cell proliferation/viability; read-out: IC50 MOLM-13 μM (myeloma)
Source text: as §1, §2

[7] = biological target: PLK1 (Homo sapiens, UniProt P53350); test: PLK1 biochemical inhibition
Sequence of PLK1 (P53350 whole entry, species assumed): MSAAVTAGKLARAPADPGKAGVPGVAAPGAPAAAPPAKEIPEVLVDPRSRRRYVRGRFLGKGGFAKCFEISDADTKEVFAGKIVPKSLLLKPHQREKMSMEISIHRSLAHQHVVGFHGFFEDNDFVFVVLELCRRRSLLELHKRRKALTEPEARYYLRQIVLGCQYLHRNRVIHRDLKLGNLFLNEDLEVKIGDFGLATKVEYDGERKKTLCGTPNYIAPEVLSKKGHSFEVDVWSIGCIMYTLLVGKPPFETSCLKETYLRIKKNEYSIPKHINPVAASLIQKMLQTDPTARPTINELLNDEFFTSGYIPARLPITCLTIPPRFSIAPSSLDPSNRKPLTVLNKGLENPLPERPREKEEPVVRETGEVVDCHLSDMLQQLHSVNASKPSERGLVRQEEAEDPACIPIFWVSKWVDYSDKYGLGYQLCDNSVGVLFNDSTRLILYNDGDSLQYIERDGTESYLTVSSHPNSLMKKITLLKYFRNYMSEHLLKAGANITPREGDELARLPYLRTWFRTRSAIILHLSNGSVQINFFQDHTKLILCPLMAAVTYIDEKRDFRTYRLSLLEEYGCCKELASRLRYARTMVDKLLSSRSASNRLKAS

T1 sequence (Q9P1W9 whole entry): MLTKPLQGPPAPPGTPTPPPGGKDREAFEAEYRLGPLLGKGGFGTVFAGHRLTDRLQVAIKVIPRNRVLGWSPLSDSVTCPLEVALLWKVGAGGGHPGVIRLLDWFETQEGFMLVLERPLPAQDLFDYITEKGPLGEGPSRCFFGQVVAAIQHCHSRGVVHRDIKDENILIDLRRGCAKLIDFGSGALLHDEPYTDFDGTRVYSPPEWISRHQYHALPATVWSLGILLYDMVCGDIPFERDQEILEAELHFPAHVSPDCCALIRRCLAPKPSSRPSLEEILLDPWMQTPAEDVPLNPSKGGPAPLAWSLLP
T3 sequence (P11309 whole entry): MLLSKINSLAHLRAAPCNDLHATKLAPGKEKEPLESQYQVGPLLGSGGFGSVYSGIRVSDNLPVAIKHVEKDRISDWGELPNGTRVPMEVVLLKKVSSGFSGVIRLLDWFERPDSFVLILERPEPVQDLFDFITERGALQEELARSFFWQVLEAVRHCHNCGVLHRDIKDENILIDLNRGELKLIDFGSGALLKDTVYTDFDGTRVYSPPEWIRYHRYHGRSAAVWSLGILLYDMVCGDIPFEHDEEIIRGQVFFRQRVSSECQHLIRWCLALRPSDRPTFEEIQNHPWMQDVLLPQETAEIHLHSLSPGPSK

SMILES	EC50 [1]	IC50 [2]	IC50 [3]	IC50 [4]	IC50 [5]	IC50 [6]	IC50 [7]
Fc1cnc2[nH]c3cnc(-c4cccnc4)cc3c2c1N1CCOCC1 [Example 33, 3-fluoro-4-(morpholin-4-yl)-6-(pyrid-3-yl)-9H-pyrrolo[2,3-b:5,4-c′]-dipyridine]	100 to 1000 nM	100 to 1000 nM	100 to 1000 nM	1 to 100 nM	1000 to 5000 nM	100 to 1000 nM	
CN(C)CCCN(c1ccc(-c2c(F)cnc3[nH]c4cnc(-c5cccnc5)cc4c23)cc1)S(C)(=O)=O [Example 49, N-[3-(dimethylamino)propyl]-N-{4-[3-fluoro-6-(pyrid-3-yl)-9H-pyrrolo[2,3-b:5,4-c′]-dipyrid-4-yl]phenyl}methanesulfonamide]	1 to 100 nM	1 to 100 nM	1 to 100 nM	1 to 100 nM	1 to 100 nM		100 to 1000 nM
CCN1CCN(C(C)(C)C#Cc2c(F)cnc3[nH]c4cnc(-c5cccnc5)cc4c23)CC1 [Example 92, 4-[3-(4-ethylpiperazin-1-yl)-3-methylbut-1-yn-1-yl]-3-fluoro-6-(pyrid-3-yl)-9H-pyrrolo-[2,3-b:5,4-c′]dipyridine]	100 to 1000 nM	1000 to 5000 nM	1 to 100 nM	1 to 100 nM	1000 to 5000 nM		100 to 1000 nM
Fc1cnc2[nH]c3cnc(-c4cccnc4)cc3c2c1-c1ccc(OCCN2CCOCC2)cc1 [Example 99, 3-fluoro-4-{4-[2-(morpholin-4-yl)ethoxy]phenyl}-6-(pyrid-3-yl)-9H-pyrrolo[2,3-b:5,4-c′]dipyridine]		1000 to 5000 nM	100 to 1000 nM	1 to 100 nM			100 to 1000 nM
OC(COc1ccc(-c2c(F)cnc3[nH]c4cnc(-c5cccnc5)cc4c23)cc1)CN1CCOCC1 (stereo not shown) [Example 101, 1-{4-[3-fluoro-6-(pyrid-3-yl)-9H-pyrrolo[2,3-b:5,4-c′]dipyrid-4-yl]phenoxy}-3-(morpholin-4-yl)propan-2-ol]		100 to 1000 nM	1 to 100 nM	1 to 100 nM			1 to 100 nM
CCCNc1cnc2[nH]c3cnc(-c4cccnc4)cc3c2c1 [Example 110, N-propyl-6-(pyrid-3-yl)-9H-pyrrolo[2,3-b:5,4-c′]dipyrid-3-amine]		1000 to 5000 nM	100 to 1000 nM	1 to 100 nM			1000 to 5000 nM
CCOc1cnc2[nH]c3cnc(-c4cccnc4)cc3c2c1 [Example 112, 3-ethoxy-6-(pyrid-3-yl)-9H-pyrrolo[2,3-b:5,4-c′]dipyridine]		100 to 1000 nM	1 to 100 nM	1 to 100 nM			100 to 1000 nM
COCCOc1cnc2[nH]c3cnc(-c4cccnc4)cc3c2c1 [Example 113, 3-(2-methoxyethoxy)-6-(pyrid-3-yl)-9H-pyrrolo[2,3-b:5,4-c′]dipyridine]		1000 to 5000 nM	1 to 100 nM	1 to 100 nM			1000 to 5000 nM
c1cncc(-c2cc3c(cn2)[nH]c2ncc(-c4cnn(CCN5CCOCC5)c4)cc23)c1 [Example 115, 3-{1-[2-(morpholin-4-yl)ethyl]-1H-pyrazol-4-yl}-6-(pyrid-3-yl)-9H-pyrrolo[2,3-b:5,4-c′]dipyridine]		1000 to 5000 nM	1 to 100 nM	1 to 100 nM			1000 to 5000 nM
Cn1ccc(-c2cnc3[nH]c4cnc(-c5cccnc5)cc4c3c2)n1 [Example 116, 3-(1-methyl-1H-pyrazol-3-yl)-6-(pyrid-3-yl)-9H-pyrrolo[2,3-b:5,4-c′]dipyridine]		> 5000 nM	1 to 100 nM	1 to 100 nM			1000 to 5000 nM
OCc1cccc(-c2cnc3[nH]c4cnc(-c5cccnc5)cc4c3c2)c1 [Example 118, {3-[6-(pyrid-3-yl)-9H-pyrrolo-[2,3-b:5,4-c′]-dipyrid-3-yl]-phenyl}methanol]		100 to 1000 nM	1 to 100 nM	1 to 100 nM			100 to 1000 nM
c1cncc(-c2cc3c(cn2)[nH]c2ncc(-c4ccc(N5CCOCC5)cc4)cc23)c1 [Example 121, 3-[4-(morpholin-4-yl)phenyl]-6-(pyrid-3-yl)-9H-pyrrolo[2,3-b:5,4-c′]-dipyridine]		1000 to 5000 nM	1 to 100 nM	1 to 100 nM			1000 to 5000 nM
CC(C)N1CCN(c2ccc(-c3cnc4[nH]c5cnc(-c6cccnc6)cc5c4c3)cc2)CC1 [Example 122, 3-{4-[4-(propan-2-yl)piperazin-1-yl]phenyl}-6-(pyrid-3-yl)-9H-pyrrolo[2,3-b:5,4-c′]-dipyridine]	1 to 100 nM	100 to 1000 nM	1 to 100 nM	1 to 100 nM	1 to 100 nM		1000 to 5000 nM
CN1CCN(CCCn2cc(-c3cnc4[nH]c5cnc(-c6cccnc6)cc5c4c3)cn2)CC1 [Example 124, 3-{1-[3-(4-methyl-piperazin-1-yl)propyl]-1H-pyrazol-4-yl}-6-(pyrid-3-yl)-9H-pyrrolo[2,3-b:5,4-c′]-dipyridine]		100 to 1000 nM	1 to 100 nM	1 to 100 nM			100 to 1000 nM
c1cncc(-c2cc3c(cn2)[nH]c2ncc(-c4cn[nH]c4)cc23)c1 [Example 126, 3-(1H-pyrazol-4-yl)-6-(pyrid-3-yl)-9H-pyrrolo-[2,3-b:5,4-c′]-dipyridine]		> 5000 nM	100 to 1000 nM	1 to 100 nM			1000 to 5000 nM
CCN(CC)CCCn1cc(-c2cnc3[nH]c4cnc(-c5cccnc5)cc4c3c2)cn1 [Example 127, N,N-diethyl-3-{4-[6-(pyrid-3-yl)-9H-pyrrolo-[2,3-b:5,4-c′]-dipyrid-3-yl]-1H-pyrazol-1-yl}-propan-l-amine]	1 to 100 nM	100 to 1000 nM	1 to 100 nM	1 to 100 nM	1 to 100 nM		1000 to 5000 nM
CCN1CCCC1Cn1cc(-c2cnc3[nH]c4cnc(-c5cccnc5)cc4c3c2)cn1 (stereo not shown) [Example 128, 3-{1-[(1-ethylpyrrolidin-2-yl)methyl]-1H-pyrazol-4-yl}-6-(pyrid-3-yl)-9H-pyrrolo[2,3-b:5,4-c′]dipyridine]	1 to 100 nM				1 to 100 nM	1 to 100 nM	
COc1cnc2[nH]c3cnc(-c4cnn(C)c4)cc3c2c1 [Example 163, 3-methoxy-6-(1-methyl-1H-pyrazol-4-yl)-9H-pyrrolo[2,3-b:5,4-c′]dipyridine]	100 to 1000 nM	100 to 1000 nM	1 to 100 nM	1 to 100 nM	100 to 1000 nM		1000 to 5000 nM
COc1cnc2[nH]c3cnc(-c4cnn(CC(=O)NCCN(C)C)c4)cc3c2c1 [Example 165, N-[2-(dimethylamino)ethyl]-2-[4-(3-methoxy-9H-pyrrolo[2,3-b:5,4-c′]dipyrid-6-yl)-1H-pyrazol-1-yl]acetamide]		> 5000 nM	100 to 1000 nM	100 to 1000 nM			> 5000 nM
COc1cnc2[nH]c3cnc(-c4cnn(CCCCCNC(=O)OC(C)(C)C)c4)cc3c2c1 [Example 167, 2-methyl-2-propyl {5-[4-(3-methoxy-9H-pyrrolo[2,3-b:5,4-c′]dipyrid-6-yl)-1H-pyrazol-1-yl]pentyl}carbamate]		1000 to 5000 nM	100 to 1000 nM	100 to 1000 nM			> 5000 nM
